# According to US10358436B2, “Kinase inhibitors and method of treating cancer” (University Health Network, priority 2010, dated 2019):
# Tests used:
# [1] = target: PLK3 (Homo sapiens (Human), UniProt Q9H4B4); test: PLK3 inhibition assay (Z-Lyte); type: biochemical
# Procedure: (§1) PLK3 inhibition was determined using the Z-Lyte assay kit from Invitrogen (cat #PV3802). The assay was performed using the recommended manufacturer's instructions with 100 μM ATP and 21 nM PLK3 (Invitrogen cat #PV3812). The % inhibition values were determined according to the manufacturer's directions and IC50 values were obtained using a non-linear 4 point logistic curve fit (XLfit4, IDBS).
# [2] = target: PLK1 (Homo sapiens (Human), UniProt P53350); test: PLK1 inhibition assay (Z-Lyte); type: biochemical
# Procedure: PLK1 inhibition was determined using the Z-Lyte assay kit from Invitrogen (cat #PV3802). The assay was performed using the recommended manufacturer's instructions with 25 μM ATP and 8 nM PLK1 (Invitrogen cat #PV3501). The % inhibition values were determined according to the manufacturer's directions and IC50 values were obtained using a non-linear 4 point logistic curve fit (XLfit4, IDBS)
# [3] = tested on: HUV-EC-C cells; test: In vitro angiogenesis assay (tube formation); type: cell-based; details: 4 hr
# Procedure: Activity against these RTKs can result in antiangiogenic activity which is associated with slowed tumor growth and/or tumor regression. To measure the antiangiogenic effects of compounds of the invention, selected examples were tested in an angiogenesis assay as described below.
# HUV-EC-C cells were obtained from the American Type Culture Collection (ATCC, CRL-1730), and were used at early passage for the assay. The in vitro Angiogenesis Assay Kit (Chemicon) was used according to the manufacturer's recommendation. An ice-cold mixture of ECMatrix was transferred into a precooled 96-well plate. After the matrix solution had solidified (>1 hr incubation at 37° C.), 8,000 cells were mixed with the appropriate inhibitor concentration (in 100 microliters EGM-2) and plated into each well. The clinical antiangiogenic, Sutent was used as a positive control in comparison to a compound of the invention, A13. After incubation at 37° C. for 4 hr, tube formation was inspected. Two methods, pattern recognition and branch point counting, were used to quantify the progression of angiogenesis and expressed as a percentage of the control tube count (FIGS. 1 and 2).
# [4] = target: PLK2 (Homo sapiens (Human), UniProt Q9NYY3); test: PLK2 inhibition assay (Z-Lyte); type: biochemical
# Procedure: as §1, with “PLK2” for “PLK3”, “60” for “100”, “133” for “21”, “#PV4204).” for “#PV3812).”, “IDBS)” for “IDBS).”
# [5] = target: KDR kinase (VEGFR2) (Homo sapiens (Human), UniProt P35968); test: Kinase selectivity assay (CEREP HTRF panel); type: biochemical
# Procedure: (§2) The assays were performed using standard HTRF assay methods as documented by CEREP against the human orthologues of Ab1 kinase, Akt1/PKBa, AMPKa, BMX kinase (Etk), Brk, CaMK2a, CaMK4, CDC2/CDK1 (cycB), CHK1, CHK2, c-Met kinase, CSK, EphB4 kinase, ERK1, ERK2 (P42mapk), FGFR2 kinase, FGFR4 kinase, FLT-1 kinase (VEGFR1), FLT-3 kinase, Fyn kinase, IGF1R kinase, IRK (InsR), JNK 2, KDR kinase (VEGFR2), Lck kinase, Lyn kinase, MAPKAPK2, MEK1/MAP2K1, p38a kinase, p38d kinase, p38 g kinase, PDGFRb kinase, PDK1, PKA, PKCa, PKCb1, PKCb2, PKCg, Ret kinase, ROCK2, RSK2, Src kinase, Syk, and TRKA (Table 3).
# [6] = tested on: AMPKalpha; test: Kinase selectivity assay (CEREP HTRF panel); type: biochemical, human
# [7] = target: Aurora A (Homo sapiens (Human), UniProt O14965); test: Aurora A inhibition assay (Z-Lyte); type: biochemical
# [8] = target: FLT3 (Homo sapiens (Human), UniProt P36888); test: Kinase selectivity assay (CEREP HTRF panel); type: biochemical
# Procedure: as §2
# [9] = target: MAPKAPK2 (Homo sapiens (Human), UniProt P49137); test: Kinase selectivity assay (CEREP HTRF panel); type: biochemical
# [10] = target: PDK1 (Homo sapiens (Human), UniProt O15530); test: Kinase selectivity assay (CEREP HTRF panel); type: biochemical
# [11] = target: PKA (Homo sapiens (Human), UniProt P17612); test: Kinase selectivity assay (CEREP HTRF panel); type: biochemical
# [12] = target: Abl (Homo sapiens (Human), UniProt P00519); test: Kinase selectivity assay (CEREP HTRF panel); type: biochemical
# [13] = target: TRKA (Homo sapiens (Human), UniProt P04629); test: Kinase selectivity assay (CEREP HTRF panel); type: biochemical
# [14] = target: Lck (Homo sapiens (Human), UniProt P06239); test: Kinase selectivity assay (CEREP HTRF panel); type: biochemical
# [15] = target: p38gamma kinase (Homo sapiens (Human), UniProt P53778); test: Kinase selectivity assay (CEREP HTRF panel); type: biochemical
# [16] = target: CHK2 (Homo sapiens (Human), UniProt O96017); test: Kinase selectivity assay (CEREP HTRF panel); type: biochemical
# [17] = target: PKCbeta 2 (Homo sapiens (Human), UniProt P05771); test: Kinase selectivity assay (CEREP HTRF panel); type: biochemical
# [18] = target: CHK1 (Homo sapiens (Human), UniProt O14757); test: Kinase selectivity assay (CEREP HTRF panel); type: biochemical
# [19] = target: FGFR4 kinase (Homo sapiens (Human), UniProt P22455); test: Kinase selectivity assay (CEREP HTRF panel); type: biochemical
# [20] = target: p38delta kinase (Homo sapiens (Human), UniProt O15264); test: Kinase selectivity assay (CEREP HTRF panel); type: biochemical
# [21] = target: CDC2/CDK1 (cycB) (Homo sapiens (Human), UniProt P06493); test: Kinase selectivity assay (CEREP HTRF panel); type: biochemical
# [22] = target: PDGFRbeta kinase (Homo sapiens (Human), UniProt P09619); test: Kinase selectivity assay (CEREP HTRF panel); type: biochemical
# [23] = target: BMX kinase (Etk) (Homo sapiens (Human), UniProt P51813); test: Kinase selectivity assay (CEREP HTRF panel); type: biochemical
# [24] = target: PKCbeta 1 (Homo sapiens (Human), UniProt P05771); test: Kinase selectivity assay (CEREP HTRF panel); type: biochemical
# [25] = target: PKCalpha (Homo sapiens (Human), UniProt P17252); test: Kinase selectivity assay (CEREP HTRF panel); type: biochemical
# [26] = target: Lyn kinase (Homo sapiens (Human), UniProt P07948); test: Kinase selectivity assay (CEREP HTRF panel); type: biochemical
# [27] = target: JNK 2 (Homo sapiens (Human), UniProt P45984); test: Kinase selectivity assay (CEREP HTRF panel); type: biochemical
# [28] = target: Fyn kinase (Homo sapiens (Human), UniProt P06241); test: Kinase selectivity assay (CEREP HTRF panel); type: biochemical
# [29] = target: ERK1 (Homo sapiens (Human), UniProt P27361); test: Kinase selectivity assay (CEREP HTRF panel); type: biochemical
# [30] = target: IRK (InsR) (Homo sapiens (Human), UniProt P06213); test: Kinase selectivity assay (CEREP HTRF panel); type: biochemical
# [31] = target: p38alpha kinase (Homo sapiens (Human), UniProt Q16539); test: Kinase selectivity assay (CEREP HTRF panel); type: biochemical
# [32] = target: CSK (Homo sapiens (Human), UniProt P41240); test: Kinase selectivity assay (CEREP HTRF panel); type: biochemical
# [33] = target: Akt1/PKBalpha (Homo sapiens (Human), UniProt P31749); test: Kinase selectivity assay (CEREP HTRF panel); type: biochemical
# [34] = target: RSK2 (Homo sapiens (Human), UniProt P51812); test: Kinase selectivity assay (CEREP HTRF panel); type: biochemical
# [35] = target: PKCgamma (Homo sapiens (Human), UniProt P05129); test: Kinase selectivity assay (CEREP HTRF panel); type: biochemical
# [36] = target: MEK1/MAP2K1 (Homo sapiens (Human), UniProt Q02750); test: Kinase selectivity assay (CEREP HTRF panel); type: biochemical
# [37] = target: Brk (Homo sapiens (Human), UniProt Q13882); test: Kinase selectivity assay (CEREP HTRF panel); type: biochemical
# [38] = target: ROCK2 (Homo sapiens (Human), UniProt O75116); test: Kinase selectivity assay (CEREP HTRF panel); type: biochemical
# [39] = target: ERK2 (P42mapk) (Homo sapiens (Human), UniProt P28482); test: Kinase selectivity assay (CEREP HTRF panel); type: biochemical; details: read-out: % Inhibition @ 10 uM, ERK (P42mapk)
# [40] = target: CaMK4 (Homo sapiens (Human), UniProt Q16566); test: Kinase selectivity assay (CEREP HTRF panel); type: biochemical
# [41] = target: Ret kinase (Homo sapiens (Human), UniProt P07949); test: Kinase selectivity assay (CEREP HTRF panel); type: biochemical
# [42] = target: Src kinase (Homo sapiens (Human), UniProt P12931); test: Kinase selectivity assay (CEREP HTRF panel); type: biochemical
# [43] = target: IGF1R kinase (Homo sapiens (Human), UniProt P08069); test: Kinase selectivity assay (CEREP HTRF panel); type: biochemical
# [44] = target: c-Met kinase (Homo sapiens (Human), UniProt P08581); test: Kinase selectivity assay (CEREP HTRF panel); type: biochemical
# [45] = target: EphB4 kinase (Homo sapiens (Human), UniProt P54760); test: Kinase selectivity assay (CEREP HTRF panel); type: biochemical
# [46] = target: FLT-1 kinase (VEGFR1) (Homo sapiens (Human), UniProt P17948); test: Kinase selectivity assay (CEREP HTRF panel); type: biochemical
# [47] = target: CaMK2alpha (Homo sapiens (Human), UniProt Q9UQM7); test: Kinase selectivity assay (CEREP HTRF panel); type: biochemical
# Sequence of FLT3 (P36888 27-993): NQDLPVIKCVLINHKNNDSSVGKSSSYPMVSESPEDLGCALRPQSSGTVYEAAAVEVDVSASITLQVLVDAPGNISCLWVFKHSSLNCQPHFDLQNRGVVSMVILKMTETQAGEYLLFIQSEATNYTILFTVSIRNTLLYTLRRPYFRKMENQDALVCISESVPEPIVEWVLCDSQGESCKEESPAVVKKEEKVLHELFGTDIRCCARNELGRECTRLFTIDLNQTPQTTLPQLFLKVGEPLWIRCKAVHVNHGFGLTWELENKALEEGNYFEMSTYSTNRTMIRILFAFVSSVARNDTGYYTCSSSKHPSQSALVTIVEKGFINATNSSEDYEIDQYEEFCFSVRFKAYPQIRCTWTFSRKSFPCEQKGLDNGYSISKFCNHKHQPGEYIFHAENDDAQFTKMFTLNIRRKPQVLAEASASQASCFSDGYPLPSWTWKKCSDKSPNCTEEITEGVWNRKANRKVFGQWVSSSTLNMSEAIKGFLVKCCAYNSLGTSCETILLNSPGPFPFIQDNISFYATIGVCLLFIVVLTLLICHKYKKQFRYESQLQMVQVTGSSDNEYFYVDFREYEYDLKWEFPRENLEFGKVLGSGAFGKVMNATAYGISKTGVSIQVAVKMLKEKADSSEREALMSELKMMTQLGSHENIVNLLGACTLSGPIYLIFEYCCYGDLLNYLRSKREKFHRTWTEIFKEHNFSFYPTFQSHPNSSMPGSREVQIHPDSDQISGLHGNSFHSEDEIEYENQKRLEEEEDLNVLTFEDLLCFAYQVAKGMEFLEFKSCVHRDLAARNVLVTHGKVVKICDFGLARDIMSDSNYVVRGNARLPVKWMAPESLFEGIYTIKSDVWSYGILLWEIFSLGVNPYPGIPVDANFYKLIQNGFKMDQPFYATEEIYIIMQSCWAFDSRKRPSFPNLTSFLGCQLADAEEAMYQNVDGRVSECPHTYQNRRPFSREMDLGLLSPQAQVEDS
# Sequence of KDR kinase (VEGFR2) (P35968 20-1356): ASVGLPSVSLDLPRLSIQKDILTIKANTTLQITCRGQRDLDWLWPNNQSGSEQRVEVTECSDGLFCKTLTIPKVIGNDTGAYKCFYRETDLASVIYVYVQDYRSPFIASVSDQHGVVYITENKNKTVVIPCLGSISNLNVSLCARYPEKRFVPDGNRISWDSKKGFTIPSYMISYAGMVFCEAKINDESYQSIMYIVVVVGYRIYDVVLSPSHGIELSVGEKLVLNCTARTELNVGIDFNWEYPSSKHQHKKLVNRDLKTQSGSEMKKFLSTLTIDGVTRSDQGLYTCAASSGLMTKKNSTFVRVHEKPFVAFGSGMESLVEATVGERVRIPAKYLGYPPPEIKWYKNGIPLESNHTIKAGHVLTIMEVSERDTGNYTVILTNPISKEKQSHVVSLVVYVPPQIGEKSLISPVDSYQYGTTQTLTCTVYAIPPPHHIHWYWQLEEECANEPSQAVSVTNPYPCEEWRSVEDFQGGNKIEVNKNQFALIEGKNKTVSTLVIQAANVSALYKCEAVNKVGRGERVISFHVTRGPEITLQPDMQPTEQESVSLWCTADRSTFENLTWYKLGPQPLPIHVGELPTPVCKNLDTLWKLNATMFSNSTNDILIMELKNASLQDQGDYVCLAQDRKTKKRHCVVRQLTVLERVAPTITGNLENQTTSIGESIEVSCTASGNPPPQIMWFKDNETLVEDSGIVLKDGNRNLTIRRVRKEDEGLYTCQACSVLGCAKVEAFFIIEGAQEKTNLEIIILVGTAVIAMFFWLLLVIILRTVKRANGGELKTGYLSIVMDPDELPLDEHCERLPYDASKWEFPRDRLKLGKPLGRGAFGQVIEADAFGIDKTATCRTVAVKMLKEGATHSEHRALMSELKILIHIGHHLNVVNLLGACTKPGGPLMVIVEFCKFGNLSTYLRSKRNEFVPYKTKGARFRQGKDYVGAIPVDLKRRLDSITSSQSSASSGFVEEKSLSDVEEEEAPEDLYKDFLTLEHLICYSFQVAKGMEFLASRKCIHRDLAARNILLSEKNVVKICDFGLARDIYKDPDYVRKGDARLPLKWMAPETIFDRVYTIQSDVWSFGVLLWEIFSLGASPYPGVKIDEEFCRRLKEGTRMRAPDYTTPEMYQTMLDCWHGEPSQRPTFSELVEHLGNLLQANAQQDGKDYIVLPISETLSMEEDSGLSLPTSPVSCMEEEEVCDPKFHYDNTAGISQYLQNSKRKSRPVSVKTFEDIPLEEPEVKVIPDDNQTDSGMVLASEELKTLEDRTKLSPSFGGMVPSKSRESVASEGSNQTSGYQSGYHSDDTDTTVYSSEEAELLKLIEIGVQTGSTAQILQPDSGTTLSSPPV
# Sequence of Lyn kinase (P07948 whole entry): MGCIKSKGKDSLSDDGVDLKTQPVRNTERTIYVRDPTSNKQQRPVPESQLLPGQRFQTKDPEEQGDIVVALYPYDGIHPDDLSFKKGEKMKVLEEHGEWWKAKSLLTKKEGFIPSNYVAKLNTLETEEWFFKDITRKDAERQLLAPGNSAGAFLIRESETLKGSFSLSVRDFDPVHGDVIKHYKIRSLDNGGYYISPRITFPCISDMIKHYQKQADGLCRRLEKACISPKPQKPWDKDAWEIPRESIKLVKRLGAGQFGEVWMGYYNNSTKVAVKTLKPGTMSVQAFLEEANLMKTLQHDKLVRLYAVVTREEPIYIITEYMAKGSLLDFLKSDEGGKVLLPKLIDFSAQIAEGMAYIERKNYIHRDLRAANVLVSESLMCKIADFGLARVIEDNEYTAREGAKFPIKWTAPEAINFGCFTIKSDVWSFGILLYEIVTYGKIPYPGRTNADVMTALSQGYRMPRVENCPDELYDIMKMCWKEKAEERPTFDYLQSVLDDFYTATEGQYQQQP
# Sequence of EphB4 kinase (P54760 16-987): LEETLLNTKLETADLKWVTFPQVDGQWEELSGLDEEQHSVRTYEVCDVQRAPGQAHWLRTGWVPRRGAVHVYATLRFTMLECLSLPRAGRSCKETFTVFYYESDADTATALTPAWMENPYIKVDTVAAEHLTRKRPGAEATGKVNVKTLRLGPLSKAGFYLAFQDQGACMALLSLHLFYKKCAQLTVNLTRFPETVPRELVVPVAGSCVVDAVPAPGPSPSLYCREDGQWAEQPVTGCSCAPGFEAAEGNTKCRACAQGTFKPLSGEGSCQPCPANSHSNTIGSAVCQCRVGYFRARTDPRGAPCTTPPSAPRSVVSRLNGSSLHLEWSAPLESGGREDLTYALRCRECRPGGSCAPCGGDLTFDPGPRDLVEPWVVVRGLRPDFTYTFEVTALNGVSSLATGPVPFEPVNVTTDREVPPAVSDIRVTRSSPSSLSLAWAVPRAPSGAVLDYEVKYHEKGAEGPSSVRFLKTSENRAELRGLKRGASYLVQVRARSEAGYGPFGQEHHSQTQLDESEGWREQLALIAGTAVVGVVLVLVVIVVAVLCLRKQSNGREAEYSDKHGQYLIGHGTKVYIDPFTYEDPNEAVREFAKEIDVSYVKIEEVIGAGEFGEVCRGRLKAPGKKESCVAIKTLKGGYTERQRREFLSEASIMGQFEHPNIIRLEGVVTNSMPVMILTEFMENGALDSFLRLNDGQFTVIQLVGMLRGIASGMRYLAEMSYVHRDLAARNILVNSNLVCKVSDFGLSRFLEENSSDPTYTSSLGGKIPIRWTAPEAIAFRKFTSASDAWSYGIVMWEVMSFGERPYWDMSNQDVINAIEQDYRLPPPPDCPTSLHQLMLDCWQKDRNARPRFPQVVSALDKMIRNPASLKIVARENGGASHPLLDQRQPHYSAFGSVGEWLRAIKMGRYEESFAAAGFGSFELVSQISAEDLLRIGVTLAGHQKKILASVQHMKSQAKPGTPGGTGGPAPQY
# Sequence of MEK1/MAP2K1 (Q02750 whole entry): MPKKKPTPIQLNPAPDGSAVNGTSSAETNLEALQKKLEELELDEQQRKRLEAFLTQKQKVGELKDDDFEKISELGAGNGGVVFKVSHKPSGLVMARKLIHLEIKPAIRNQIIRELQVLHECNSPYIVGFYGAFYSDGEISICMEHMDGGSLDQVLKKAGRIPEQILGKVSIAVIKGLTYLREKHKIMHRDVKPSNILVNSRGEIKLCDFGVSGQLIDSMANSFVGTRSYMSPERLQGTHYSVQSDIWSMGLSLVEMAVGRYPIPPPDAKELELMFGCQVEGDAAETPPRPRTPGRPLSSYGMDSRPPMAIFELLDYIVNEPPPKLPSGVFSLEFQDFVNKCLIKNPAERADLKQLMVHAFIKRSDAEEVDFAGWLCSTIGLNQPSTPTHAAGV
smiles,measurement,setting,value
"CN(C)Cc1ccc(/C=C/c2n[nH]c3cc([C@@H]4C[C@@]45C(=O)Nc4ccccc45)ccc23)cc1 (relative stereo) [Example A23, (1R*,2S*)-(E)-2-(3-(4-((dimethylamino)methyl)styryl)-1H-indazol-6-yl)spiro[cyclopropane-1,3′-indolin]-2′-one 2,2,2-trifluoroacetate]",inhibition at 10 µM,[1],≤ 50%
same,inhibition at 10 µM,[2],≤ 50%
same,anti-angiogenic effect (tube formation),[3],anti-agiogenic effects at submicromolar concentrations
same,inhibition at 10 µM,[4],≤ 50%
"COc1ccc2c(c1)[C@]1(C[C@H]1c1ccc3c(-c4ccc(N5CCN(C)CC5)nc4)n[nH]c3c1)C(=O)N2 (relative stereo) [Example A13, (1R*,2S*)-5′-Methoxy-2-(3-(6-(4-methylpiperazin-1-yl)pyridin-3-yl)-1H-indazol-6-yl)spiro[cyclopropane-1,3′-indolin]-2′-one]",inhibition at 10 µM,[5],6%
same,"% Inhibition @ 10 uM, AMPKalpha",[6],8%
same,inhibition at 1 µM,[7],< 50%
same,anti-angiogenic effect (tube formation),[3],anti-agiogenic effects at submicromolar concentrations
same,inhibition at 10 µM,[8],86%
"O=C1Nc2ccccc2[C@]12C[C@H]2c1ccc2c(/C=C/c3ccncc3)n[nH]c2c1 (relative stereo) [Example A22, 1R*,2S*)-(E)-2-(3-(2-(pyridin-4-yl)vinyl)-1H-indazol-6-yl)spiro-[cyclo-propane-1,3′-indolin]-2′-one]",inhibition at 10 µM,[9],4%
same,inhibition at 10 µM,[10],69%
same,inhibition at 10 µM,[11],-6%
same,inhibition at 10 µM,[12],97%
same,inhibition at 10 µM,[13],100%
same,inhibition at 10 µM,[1],≤ 50%
same,inhibition at 10 µM,[14],97%
same,inhibition at 10 µM,[15],-15%
same,inhibition at 10 µM,[16],4%
same,inhibition at 10 µM,[17],11%
same,inhibition at 10 µM,[18],37%
same,inhibition at 10 µM,[19],56%
same,inhibition at 10 µM,[20],-22%
same,inhibition at 10 µM,[21],93%
same,inhibition at 10 µM,[5],98%
same,inhibition at 10 µM,[22],88%
same,inhibition at 10 µM,[23],71%
same,inhibition at 10 µM,[24],0%
same,inhibition at 10 µM,[25],7%
same,inhibition at 10 µM,[26],99%
same,inhibition at 10 µM,[27],32%
same,inhibition at 10 µM,[28],87%
same,inhibition at 10 µM,[29],8%
same,inhibition at 10 µM,[30],21%
same,inhibition at 10 µM,[31],32%
same,inhibition at 10 µM,[32],99%
same,inhibition at 10 µM,[33],-1%
same,inhibition at 10 µM,[34],48%
same,inhibition at 10 µM,[35],8%
same,inhibition at 10 µM,[36],12%
same,inhibition at 10 µM,[37],41%
same,inhibition at 10 µM,[38],88%
same,anti-angiogenic effect (tube formation),[3],anti-agiogenic effects at submicromolar concentrations
same,inhibition at 10 µM,[39],11%
same,inhibition at 10 µM,[40],-8%
same,inhibition at 10 µM,[41],99%
same,inhibition at 10 µM,[42],26%
same,inhibition at 10 µM,[4],≤ 50%
same,inhibition at 10 µM,[43],22%
same,inhibition at 10 µM,[44],97%
same,inhibition at 10 µM,[8],100%
same,inhibition at 10 µM,[45],99%
"O=C1Nc2ccccc2[C@]12C[C@H]2c1ccc2cn[nH]c2c1 (racemic) [Example A2, (1R*,2S*)-2-(1H-indazol-6-yl)spiro[cyclopropane-1,3′-indolin]-2′-one]",inhibition at 10 µM,[9],-4%
same,inhibition at 10 µM,[10],4%
same,inhibition at 10 µM,[11],0%
same,inhibition at 10 µM,[12],3%
same,inhibition at 10 µM,[13],54%
same,inhibition at 10 µM,[46],1%
same,inhibition at 10 µM,[14],17%
same,inhibition at 10 µM,[15],4%
same,inhibition at 10 µM,[16],-10%
same,inhibition at 10 µM,[17],4%
same,inhibition at 10 µM,[18],-4%
same,inhibition at 10 µM,[19],0%
same,inhibition at 10 µM,[20],-10%
same,inhibition at 10 µM,[5],14%
same,inhibition at 10 µM,[22],4%
same,inhibition at 10 µM,[23],-3%
same,inhibition at 10 µM,[24],1%
same,inhibition at 10 µM,[25],-2%
same,inhibition at 10 µM,[26],26%
same,inhibition at 10 µM,[27],-2%
same,inhibition at 10 µM,[28],7%
same,inhibition at 10 µM,[29],4%
same,inhibition at 10 µM,[30],4%
same,inhibition at 10 µM,[31],6%
same,inhibition at 10 µM,[32],9%
same,inhibition at 10 µM,[33],-2%
same,inhibition at 10 µM,[34],17%
same,inhibition at 10 µM,[35],7%
same,inhibition at 10 µM,[36],4%
same,inhibition at 10 µM,[37],1%
same,inhibition at 10 µM,[38],39%
same,inhibition at 10 µM,[39],9%
same,inhibition at 10 µM,[40],7%
same,inhibition at 10 µM,[47],41%
same,inhibition at 10 µM,[41],14%
same,inhibition at 10 µM,[42],-10%
same,inhibition at 10 µM,[43],20%
same,inhibition at 10 µM,[44],15%
same,inhibition at 10 µM,[8],62%
same,inhibition at 10 µM,[45],11%
